{
  "source": "paper PMC11359809",
  "about": "“Probing the molecular basis for signal transduction through the Zinc-Activated Channel (ZAC)” (Biochemical pharmacology, 2021)",
  "assay_type_in_all_cases": "cell-based",
  "key": {"ZAC^H82A": {"molecular_target": "T1, ZAC^H82A (Homo sapiens, UniProt Q401N2, A152T/H106A)", "T1 construct": "expressed in transfected cells; host or cells: Xenopus oocytes injected with cRNA (pUNIV vector)", "T1 sequence (Q401N2 26-412 H106A/A152T)": "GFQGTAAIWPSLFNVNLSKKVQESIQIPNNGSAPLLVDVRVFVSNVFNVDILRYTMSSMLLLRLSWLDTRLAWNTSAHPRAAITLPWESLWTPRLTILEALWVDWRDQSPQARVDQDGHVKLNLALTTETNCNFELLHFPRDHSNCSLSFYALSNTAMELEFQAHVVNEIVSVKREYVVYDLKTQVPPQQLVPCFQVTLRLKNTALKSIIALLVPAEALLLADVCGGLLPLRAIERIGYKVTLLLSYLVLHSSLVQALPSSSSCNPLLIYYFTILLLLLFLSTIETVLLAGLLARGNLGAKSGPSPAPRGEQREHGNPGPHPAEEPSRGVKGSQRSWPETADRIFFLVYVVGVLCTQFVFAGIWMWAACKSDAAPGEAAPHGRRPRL", "experiment": "TEVC in oocytes, ZAC H82A mutant", "procedure": "(§1) The recordings were performed at room temperature.\n(§2) Analysis of the data from the TEVC recordings were performed using Clampfit software version 10.5 (Molecular Devices, Crawley, UK) and GraphPad Prism version 7.0c (GraphPad Software, La Jolla, CA). Unless otherwise stated, the inward currents induced by agonists in oocytes were normalized to the maximal response elicited by a specific agonist (agonist Imax) on each oocyte. Concentration-response and concentration-inhibition curves were fitted in GraphPad Prism by nonlinear regression using the equation for sigmoidal dose-response with variable slope. Each data point represents the mean ± S.E.M. value of recordings performed on at least five oocytes in total from at least two different batches. […] The null hypothesis was rejected at P < 0.05, and the differences between the means were analyzed by Tukey’s multiple comparisons test.\n(§3) The putative involvement of candidate residues in Clusters 1, 2, 3 and 4 in Zn^2+ binding to ZAC was investigated in by an elaborate alanine mutagenesis scanning. […] The determined IpH 4.0 value was used in part as a control and in part to enable the distinction of ZAC mutants non-responsive to Zn^2+ due to elimination of their ability to bind the metal ion from those where the mutation had eliminated cell surface expression and/or disrupted overall functionality of the receptor complex. […]"}, "ZAC^H210A": {"molecular_target": "T2, ZAC^H210A (Homo sapiens, UniProt Q401N2, A152T/H144A)", "T2 construct": "expressed in transfected cells; host or cells: Xenopus oocytes injected with cRNA (pUNIV vector)", "T2 sequence (Q401N2 26-412 H144A/A152T)": "as the sequence (Q401N2 26-412 H106A/A152T) above, with A81H, H119A counted along it", "experiment": "TEVC in oocytes, His120 Ala mutant", "settings": "10 mM Zn^2+", "procedure": "as §1, §2, §3"}, "ZAC^E24A": {"molecular_target": "T3, ZAC^E24A (Homo sapiens, UniProt Q401N2, A152T/E48A)", "T3 construct": "expressed in transfected cells; host or cells: Xenopus oocytes injected with cRNA (pUNIV vector)", "T3 sequence (Q401N2 26-412 E48A/A152T)": "as the sequence (Q401N2 26-412 H106A/A152T) above, with E23A, A81H counted along it", "experiment": "TEVC in oocytes, ZAC E24A mutant", "settings": "agonist; n = 5", "procedure": "as §1, §2, §3"}, "WT ZAC": {"molecular_target": "T4, WT ZAC (Homo sapiens, UniProt Q401N2, A152T)", "T4 construct": "expressed in transfected cells; host or cells: Xenopus oocytes injected with cRNA (pUNIV vector)", "T4 sequence (Q401N2 26-412 A152T)": "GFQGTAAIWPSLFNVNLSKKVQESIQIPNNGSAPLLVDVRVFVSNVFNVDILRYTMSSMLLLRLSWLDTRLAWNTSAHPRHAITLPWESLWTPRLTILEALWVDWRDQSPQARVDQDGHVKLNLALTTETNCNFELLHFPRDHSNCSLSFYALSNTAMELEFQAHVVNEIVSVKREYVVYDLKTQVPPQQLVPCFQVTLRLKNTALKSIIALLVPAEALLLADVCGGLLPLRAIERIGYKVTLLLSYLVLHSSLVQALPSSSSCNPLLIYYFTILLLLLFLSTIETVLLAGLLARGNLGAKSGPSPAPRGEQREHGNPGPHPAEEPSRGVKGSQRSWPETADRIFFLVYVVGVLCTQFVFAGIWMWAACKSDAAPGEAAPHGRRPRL", "experiment": "TEVC in Xenopus oocytes expressing WT ZAC", "procedure": "as §1\n(§4) Analysis of the data from the TEVC recordings were performed using Clampfit software version 10.5 (Molecular Devices, Crawley, UK) and GraphPad Prism version 7.0c (GraphPad Software, La Jolla, CA). Unless otherwise stated, the inward currents induced by agonists in oocytes were normalized to the maximal response elicited by a specific agonist (agonist Imax) on each oocyte. Concentration-response and concentration-inhibition curves were fitted in GraphPad Prism by nonlinear regression using the equation for sigmoidal dose-response with variable slope. Each data point represents the mean ± S.E.M. value of recordings performed on at least five oocytes in total from at least two different batches. For the data where statistical analysis was performed, a one-way ANOVA was used. The null hypothesis was rejected at P < 0.05, and the differences between the means were analyzed by Tukey’s multiple comparisons test."}, "ZAC^L9′V": {"molecular_target": "T5, ZAC^L9′V (Homo sapiens, UniProt Q401N2, A152T/L270V)", "T5 construct": "expressed in transfected cells; host or cells: Xenopus oocytes (cRNA injection, pUNIV vector)", "T5 sequence (Q401N2 26-412 A152T/L270V)": "T4 sequence (Q401N2 26-412 A152T) with L245V", "experiment": "TEVC in oocytes, ZAC L9′V mutant", "settings": "agonist; n = 8", "procedure": "as §1, §4"}, "[1]": {"settings": "agonist, oocytes of the Cluster 3 recordings, n = 12"}, "[2]": {"settings": "agonist, parallel recordings with Cluster 4 mutant, n = 5"}, "[3]": {"settings": "agonist, section 3.1 recordings, n = 8"}, "[4]": {"settings": "sustained (4 min) application of 10 mM Zn^2+"}},
  "note": "Residue numbers refer to the chain shown, from its start. “And” between values parts separate entries of the source, which are not always exact repeats. Identical values can stand only once.",
  "data": [
    {"smiles": "[Cl-].[Cl-].[Zn+2]", "note": "[Zn^2+, ZnCl2]", "values": [
      {"measurement": "agonist properties compared to WT ZAC", "setting": "ZAC^H82A", "value": "WT-like agonist properties"},
      {"measurement": "I10 mM Zn2+", "setting": "ZAC^H210A", "value": "5–30 nA"},
      {"measurement": "EC50", "setting": "ZAC^E24A", "value": 71, "unit": "µM"},
      {"measurement": "pEC50 ± S.E.M.", "setting": "ZAC^E24A", "value": "4.15 ± 0.04"},
      {"measurement": "Imax (current amplitude evoked by saturating agonist)", "setting": "WT ZAC; 10 mM Zn^2+, mean ± S.E.M., n = 19", "value": "0.58 ± 0.10", "unit": "μA"},
      {"measurement": "EC50", "setting": "WT ZAC; agonist, a couple of oocyte batches with 5–10-fold higher potency (Cluster 1 double/triple mutant experiments)", "value": "~100", "unit": "µM"},
      {"measurement": "nH ± S.E.M. (Hill slope)", "setting": "WT ZAC; agonist, n = 8", "value": "1.5 ± 0.2"},
      {"measurement": "EC50", "setting": "WT ZAC; agonist, normal potency in the vast majority of oocyte batches in this work and in two other studies", "value": "500 to 1000", "unit": "µM"},
      {"measurement": "EC50", "setting": "WT ZAC; [1]", "value": 98, "unit": "µM"},
      {"measurement": "pEC50 ± S.E.M.", "setting": "WT ZAC; [1]", "value": "4.01 ± 0.03"},
      {"measurement": "EC50", "setting": "WT ZAC; [2]", "value": 310, "unit": "µM"},
      {"measurement": "pEC50 ± S.E.M.", "setting": "WT ZAC; [2]", "value": "3.51 ± 0.05"},
      {"measurement": "EC50", "setting": "WT ZAC; [3]", "value": 500, "unit": "µM"},
      {"measurement": "pEC50 ± S.E.M.", "setting": "WT ZAC; [3]", "value": "3.30 ± 0.04"},
      {"measurement": "Iresidual, 4 min", "setting": "WT ZAC; [4]", "value": "21 % of Ipeak and 21 ± 3 % of Ipeak"},
      {"measurement": "Δtstart-to-peak", "setting": "WT ZAC; [4]", "value": "4.8 ± 0.5", "unit": "s"},
      {"measurement": "EC50", "setting": "ZAC^L9′V", "value": 13, "unit": "µM"},
      {"measurement": "nH ± S.E.M. (Hill slope)", "setting": "ZAC^L9′V", "value": "0.7 ± 0.3"},
      {"measurement": "pEC50 ± S.E.M.", "setting": "ZAC^L9′V", "value": "4.88 ± 0.22"}
    ]}
  ]
}
